Tests used:
[1] = molecular target: PDGFR-α (Homo sapiens (Human), UniProt P16234); test: Enzyme selectivity test (ELISA), PDGFR-α; assay type: biochemical
Description: (§1) 1) Enzyme reaction substrate Poly(Glu, Tyr) 4:1 was diluted to 20 μg/mL with potassium-free PBS (10 mM sodium phosphate buffer, 150 mM NaCl, pH 7.2-7.4), and the microtiter plate was coated with 125 μL/well and placed at 37° C. for 12-16 hours of reaction. The liquid in the well was discard. The plate was washed three times with T-PBS (potassium-free PBS containing 0.1% Tween-20, 200 μL/well), 5 minutes each time. The ELISA plate was dried in an oven at 37° C. for 1 to 2 hours.
(§2) 2) Reaction buffer (50 mM HEPES pH 7.4, 50 mM MgCl2, 0.5 mM MnCl2, 0.2 mM Na3VO4, 1 mM DTT) diluted ATP solution (49 μL) was added to each well, 1 μL of the compound to be tested was added to each well, and then 50 μL of DDR2 kinase domain recombinant protein diluted in the reaction buffer was added to start the reaction. Two control wells without ATP were set in each experiment. The plate placed on a shaker (100 rpm) at 37° C. for 1 hour of reaction. The liquid in the well was discarded and the plate was washed three times with T-PBS.
(§3) 3) Antibody PY99 dilution solution (the antibody was diluted 1:500 with T-PBS containing BSA 5 mg/mL) was added at 100 μL/well, and shaken on a shaker at 37° C. for 0.5 hour of reaction. The liquid in the well was discarded and the plate was washed three times with T-PBS.
(§4) 4) Horseradish peroxidase labeled goat anti-murine secondary antibody dilution solution (the antibody is diluted 1:2000 with T-PBS containing BSA 5 mg/ml) was added at 100 μL/well, and shaken on a shaker at 37° C. for 0.5 hour of reaction. The liquid in the well was discarded and the plate was washed three times with T-PBS.
(§5) 5) 2 mg/ml of OPD color developing solution [diluted with 0.1 M citric acid-sodium citrate buffer (pH=5.4) containing 0.03% H2O2] was added at 100 μL/well and reacted for 1 to 10 minutes at 25° C. in the dark.
(§6) 6) 2M H2SO4 was added at 50 μL/well to stop the reaction, and a tunable wavelength microplate reader VERSAmax was used for reading at a wavelength of 490 nm.
(§7) The IC50 value was obtained by four-parameter regression using the software that came with the microplate reader. […]

[2] = molecular target: RET (Homo sapiens (Human), UniProt P07949); test: Enzyme selectivity test (ELISA), RET; assay type: biochemical
Sequence of RET (P07949 29-1114, species assumed): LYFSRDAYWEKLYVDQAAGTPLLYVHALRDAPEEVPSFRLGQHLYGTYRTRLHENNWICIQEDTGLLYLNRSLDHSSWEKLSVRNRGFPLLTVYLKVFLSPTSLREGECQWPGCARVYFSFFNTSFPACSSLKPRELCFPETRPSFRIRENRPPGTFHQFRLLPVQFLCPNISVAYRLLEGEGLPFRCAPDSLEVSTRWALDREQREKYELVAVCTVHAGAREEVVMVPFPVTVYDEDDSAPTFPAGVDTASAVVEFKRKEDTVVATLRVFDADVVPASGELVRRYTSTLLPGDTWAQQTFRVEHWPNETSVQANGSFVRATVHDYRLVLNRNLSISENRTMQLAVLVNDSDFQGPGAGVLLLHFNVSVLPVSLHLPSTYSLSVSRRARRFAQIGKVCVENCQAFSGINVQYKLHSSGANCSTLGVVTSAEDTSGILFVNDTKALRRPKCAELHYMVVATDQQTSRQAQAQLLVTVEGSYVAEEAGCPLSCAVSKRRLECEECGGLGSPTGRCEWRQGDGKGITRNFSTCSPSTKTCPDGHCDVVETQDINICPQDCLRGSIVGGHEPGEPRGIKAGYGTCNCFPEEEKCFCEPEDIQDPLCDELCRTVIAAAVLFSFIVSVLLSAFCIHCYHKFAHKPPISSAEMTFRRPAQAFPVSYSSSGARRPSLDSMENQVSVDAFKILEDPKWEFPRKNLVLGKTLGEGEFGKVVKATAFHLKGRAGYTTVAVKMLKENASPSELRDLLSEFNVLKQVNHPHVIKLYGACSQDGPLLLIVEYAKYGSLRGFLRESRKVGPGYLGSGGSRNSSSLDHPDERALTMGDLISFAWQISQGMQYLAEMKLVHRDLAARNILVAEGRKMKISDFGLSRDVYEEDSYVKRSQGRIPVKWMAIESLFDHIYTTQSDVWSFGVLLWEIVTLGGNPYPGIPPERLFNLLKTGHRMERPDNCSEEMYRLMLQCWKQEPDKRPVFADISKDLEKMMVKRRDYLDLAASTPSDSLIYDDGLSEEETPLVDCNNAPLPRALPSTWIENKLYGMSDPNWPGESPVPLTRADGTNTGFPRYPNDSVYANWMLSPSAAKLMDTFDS
Description: as §1, §2, §3, §4, §5, §6, §7

[3] = molecular target: EGFR (Homo sapiens (Human), UniProt P00533); test: Enzyme selectivity test (ELISA), EGFR; assay type: biochemical
Sequence of EGFR (P00533 25-1210, species assumed): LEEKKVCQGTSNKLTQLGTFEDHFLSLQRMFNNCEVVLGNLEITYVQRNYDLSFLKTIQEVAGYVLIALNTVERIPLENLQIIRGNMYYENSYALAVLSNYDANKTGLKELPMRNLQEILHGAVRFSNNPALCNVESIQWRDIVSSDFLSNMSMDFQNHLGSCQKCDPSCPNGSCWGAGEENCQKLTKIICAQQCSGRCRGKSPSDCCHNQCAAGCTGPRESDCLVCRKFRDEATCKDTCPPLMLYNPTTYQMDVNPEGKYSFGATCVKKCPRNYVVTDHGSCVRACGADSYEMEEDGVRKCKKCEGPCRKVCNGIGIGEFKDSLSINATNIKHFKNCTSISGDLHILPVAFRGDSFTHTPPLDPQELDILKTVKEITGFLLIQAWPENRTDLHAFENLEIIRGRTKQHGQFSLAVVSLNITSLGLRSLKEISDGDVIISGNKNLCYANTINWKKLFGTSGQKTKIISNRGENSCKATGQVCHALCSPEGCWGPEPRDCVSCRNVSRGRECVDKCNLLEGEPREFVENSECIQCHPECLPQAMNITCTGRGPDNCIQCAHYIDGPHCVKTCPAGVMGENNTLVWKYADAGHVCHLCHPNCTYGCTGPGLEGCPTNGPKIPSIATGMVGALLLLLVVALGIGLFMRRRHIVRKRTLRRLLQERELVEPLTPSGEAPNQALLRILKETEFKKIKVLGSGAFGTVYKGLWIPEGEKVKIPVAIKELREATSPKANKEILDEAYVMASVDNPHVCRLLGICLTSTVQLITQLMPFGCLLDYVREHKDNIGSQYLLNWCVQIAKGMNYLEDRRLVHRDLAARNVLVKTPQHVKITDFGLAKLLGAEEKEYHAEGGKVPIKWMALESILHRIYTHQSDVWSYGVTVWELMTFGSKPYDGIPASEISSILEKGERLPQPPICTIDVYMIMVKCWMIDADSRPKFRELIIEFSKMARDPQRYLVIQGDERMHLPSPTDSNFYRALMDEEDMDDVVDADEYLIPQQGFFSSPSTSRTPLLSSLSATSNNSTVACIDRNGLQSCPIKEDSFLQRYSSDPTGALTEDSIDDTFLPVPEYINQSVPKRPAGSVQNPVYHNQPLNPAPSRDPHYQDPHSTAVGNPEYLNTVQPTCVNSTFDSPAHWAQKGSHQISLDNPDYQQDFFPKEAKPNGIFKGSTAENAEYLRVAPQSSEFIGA
Description: as §1, §2, §3, §4, §5, §6, §7

[4] = tested on: mouse model of BLM-induced lung injury; test: Histopathological evaluation of lung sections, H&E staining; assay type: in vivo; details: Effect example 4; mice; S15 30, 60, 90 mg/kg, Nintedanib 30 mg/kg, oral qd 12 days
Description: Experimental objective: This group of experiments aimed to investigate the therapeutic potential of the compound S15 in acute lung injury and inflammation induced by bleomycin (BLM).
Experimental grouping (8 mice per group):
Model group (BLM): the mice received BLM (1.7 U/kg) via intratracheal instillation;
Compound S15 group (S15): this group was divided into three dose groups, namely 30, 60 and 90 mg/kg;
Positive control group (Nintedanib): Nintedanib administration group;
Negative control group (Control): only saline was used.
1) Material acquisition: The fresh tissue was fixed in 4% paraformaldehyde for more than 24 hours. The tissue was removed from the fixative solution and trim the tissue at the target site. The trimmed tissue was marked and placed in the dehydration box for later use.
2) Dehydration: The dehydration box was put in the dehydrator and different concentration gradients of ethanol was used sequentially for dehydration. 75% ethanol (4 hours), 85% ethanol (2 hours), 90% ethanol (2 hours), 95% ethanol (1 hour), absolute ethanol I (30 minutes), absolute ethanol II (30 minutes), alcohol benzene (5-10 minutes), xylene I (5-10 minutes), xylene II (5-10 minutes), wax I (1 hour), wax II (1 hour), wax III (1 hour).
3) Embedment: The wax melted at high temperature was put into the embedding frame; before the wax was cooled and solidified, the tissue was taken out of the dehydration box, put into the embedding frame according to the requirements of the embedding surface, marked and cooled at −20° C. After completely solidified, the wax block was removed from the embedding frame and trimmed.
4) Section: The trimmed wax block was put on a paraffin microtome for sectioning. The section thickness was about 4 μm. The sections were floated on warm water at 40° C. of the flotation workstation and flatten. A glass slide was used to lift the tissue from the warm water, and put into a 60° C. oven for dryness. After the water was dried and the wax melted, the glass slide was taken out and stored at ambient temperature for later use. […]

[5] = molecular target: C-Kit (Homo sapiens (Human), UniProt P10721); test: Enzyme selectivity test (ELISA), C-Kit; assay type: biochemical
Sequence of C-Kit (P10721 26-976): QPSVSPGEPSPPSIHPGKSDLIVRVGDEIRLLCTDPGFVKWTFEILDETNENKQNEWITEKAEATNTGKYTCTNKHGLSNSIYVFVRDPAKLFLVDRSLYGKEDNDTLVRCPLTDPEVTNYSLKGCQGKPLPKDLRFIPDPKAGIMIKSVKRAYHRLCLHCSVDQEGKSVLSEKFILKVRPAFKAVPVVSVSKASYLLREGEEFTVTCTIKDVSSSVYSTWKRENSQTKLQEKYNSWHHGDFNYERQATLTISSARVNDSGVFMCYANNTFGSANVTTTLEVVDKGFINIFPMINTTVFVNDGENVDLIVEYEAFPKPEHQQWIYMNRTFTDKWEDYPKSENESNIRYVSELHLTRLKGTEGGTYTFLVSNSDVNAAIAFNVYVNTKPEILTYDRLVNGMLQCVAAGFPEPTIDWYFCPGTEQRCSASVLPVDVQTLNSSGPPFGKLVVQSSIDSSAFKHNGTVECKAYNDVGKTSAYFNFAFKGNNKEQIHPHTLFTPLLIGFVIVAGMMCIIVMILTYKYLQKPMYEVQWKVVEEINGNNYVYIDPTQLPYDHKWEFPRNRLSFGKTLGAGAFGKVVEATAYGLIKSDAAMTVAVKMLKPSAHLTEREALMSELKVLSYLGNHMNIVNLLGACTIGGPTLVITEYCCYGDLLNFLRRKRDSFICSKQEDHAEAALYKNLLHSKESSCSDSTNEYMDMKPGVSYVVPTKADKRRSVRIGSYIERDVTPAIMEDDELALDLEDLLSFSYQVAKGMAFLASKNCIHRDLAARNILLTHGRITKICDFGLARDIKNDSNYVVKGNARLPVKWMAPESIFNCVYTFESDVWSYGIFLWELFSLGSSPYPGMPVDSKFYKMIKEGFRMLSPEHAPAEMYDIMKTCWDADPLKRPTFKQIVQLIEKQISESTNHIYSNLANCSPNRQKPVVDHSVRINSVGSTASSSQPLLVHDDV
Description: as §1, §2, §3, §4, §5, §6, §7

[6] = molecular target: VEGFR-1 (Homo sapiens (Human), UniProt P17948); test: Enzyme selectivity test (ELISA), VEGFR-1; assay type: biochemical
Sequence of VEGFR-1 (P17948 27-1338, species assumed): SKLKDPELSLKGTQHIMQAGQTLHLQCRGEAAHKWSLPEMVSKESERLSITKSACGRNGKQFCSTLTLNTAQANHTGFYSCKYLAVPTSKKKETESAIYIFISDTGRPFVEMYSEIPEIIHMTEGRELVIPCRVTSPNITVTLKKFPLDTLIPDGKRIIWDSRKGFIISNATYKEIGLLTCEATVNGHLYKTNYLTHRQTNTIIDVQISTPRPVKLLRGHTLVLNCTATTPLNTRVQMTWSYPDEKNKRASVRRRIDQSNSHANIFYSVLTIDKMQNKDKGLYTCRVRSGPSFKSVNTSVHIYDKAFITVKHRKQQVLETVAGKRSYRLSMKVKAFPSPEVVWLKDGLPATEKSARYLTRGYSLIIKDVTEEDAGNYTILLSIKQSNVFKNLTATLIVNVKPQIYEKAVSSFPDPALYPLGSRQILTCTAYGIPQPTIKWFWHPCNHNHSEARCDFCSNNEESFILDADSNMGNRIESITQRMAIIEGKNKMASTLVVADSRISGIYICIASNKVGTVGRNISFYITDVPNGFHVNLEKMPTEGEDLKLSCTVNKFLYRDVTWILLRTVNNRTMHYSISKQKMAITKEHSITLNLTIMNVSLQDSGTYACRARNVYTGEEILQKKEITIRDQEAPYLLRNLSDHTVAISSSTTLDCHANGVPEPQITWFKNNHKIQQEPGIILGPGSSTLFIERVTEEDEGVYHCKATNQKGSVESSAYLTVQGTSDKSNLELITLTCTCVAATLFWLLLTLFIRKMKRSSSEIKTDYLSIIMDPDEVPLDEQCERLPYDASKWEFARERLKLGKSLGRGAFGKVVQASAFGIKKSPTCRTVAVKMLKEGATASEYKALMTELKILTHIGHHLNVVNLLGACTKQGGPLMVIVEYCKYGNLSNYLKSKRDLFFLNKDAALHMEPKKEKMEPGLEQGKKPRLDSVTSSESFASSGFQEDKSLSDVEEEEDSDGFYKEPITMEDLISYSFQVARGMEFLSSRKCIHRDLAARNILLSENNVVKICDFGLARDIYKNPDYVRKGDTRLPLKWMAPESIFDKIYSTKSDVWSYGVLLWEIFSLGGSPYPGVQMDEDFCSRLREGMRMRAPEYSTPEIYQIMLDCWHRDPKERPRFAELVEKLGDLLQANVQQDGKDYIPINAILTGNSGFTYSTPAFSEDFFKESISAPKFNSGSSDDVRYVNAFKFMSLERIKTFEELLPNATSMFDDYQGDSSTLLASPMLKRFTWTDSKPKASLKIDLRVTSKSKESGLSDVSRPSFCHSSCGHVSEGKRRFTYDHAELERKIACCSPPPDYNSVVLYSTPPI
Description: as §1, §2, §3, §4, §5, §6, §7

[7] = molecular target: Src (Homo sapiens (Human), UniProt P12931); test: Enzyme selectivity test (ELISA), Src; assay type: biochemical
Sequence of Src (P12931 whole entry, looked up, species assumed): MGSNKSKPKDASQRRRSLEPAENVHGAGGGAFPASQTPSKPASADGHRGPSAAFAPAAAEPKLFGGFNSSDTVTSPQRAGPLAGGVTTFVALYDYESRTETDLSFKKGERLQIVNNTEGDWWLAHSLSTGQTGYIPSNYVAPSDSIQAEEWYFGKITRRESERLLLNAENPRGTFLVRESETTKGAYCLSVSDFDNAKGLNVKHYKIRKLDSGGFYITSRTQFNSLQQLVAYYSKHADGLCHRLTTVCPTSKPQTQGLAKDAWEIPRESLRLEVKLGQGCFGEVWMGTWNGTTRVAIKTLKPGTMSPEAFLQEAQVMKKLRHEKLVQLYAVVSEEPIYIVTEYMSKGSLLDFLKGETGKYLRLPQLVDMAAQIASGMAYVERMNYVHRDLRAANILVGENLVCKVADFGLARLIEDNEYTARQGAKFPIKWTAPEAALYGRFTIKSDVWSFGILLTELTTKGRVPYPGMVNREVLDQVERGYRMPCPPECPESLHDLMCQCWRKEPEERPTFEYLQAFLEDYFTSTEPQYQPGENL
Description: as §1, §2, §3, §4, §5, §6, §7

O=C(Nc1cccc(C(F)(F)F)c1)c1ccc(C2CC2)c(-c2ccc3nc(Nc4cnn(C5CC5)c4)ncc3c2)c1 [Compound S15, 4-cyclopropyl-3-(2-((1-cyclopropyl-1H-pyrazol-4-yl)amino)quinazolin-6-yl)-N-(3-(trifluoromethyl)phenyl)benzamide]
IC50 [1]: > 1000 nM | IC50 [2]: > 1000 nM | IC50 [3]: > 1000 nM | BLM-induced lung injury, H&E staining [4]: improved significantly | IC50 [5]: > 1000 nM | IC50 [6]: > 1000 nM | IC50 [7]: > 100 nM

Source: US11655239B2 (SHANGHAI INSTITUTE OF MATERIAL MEDICA, CHINESE ACADEMY OF …, priority 2019, dated 2023)
